Patent publication US8563714B2, “Bridged spiro [2.4] heptane derivatives as ALX receptor and/or FPRL2 agonists” (Actelion Pharmaceuticals Ltd., priority 2009, dated 2013)

Legend:
[1] = biological target: T1, human ALX receptor (Homo sapiens, UniProt P25090); experiment: Intracellular calcium measurements (FLIPR), agonistic activity in HEK293-hALXR-Gα16 cells; assay type: cell-based; details: Fluo-4 calcium FLIPR, normalized to WKYMVm 10 nM
T1 construct: expressed in transfected cells; host or cells: HEK293 (HEK293-hALXR-Gα16)
T1 sequence (P25090 1-351): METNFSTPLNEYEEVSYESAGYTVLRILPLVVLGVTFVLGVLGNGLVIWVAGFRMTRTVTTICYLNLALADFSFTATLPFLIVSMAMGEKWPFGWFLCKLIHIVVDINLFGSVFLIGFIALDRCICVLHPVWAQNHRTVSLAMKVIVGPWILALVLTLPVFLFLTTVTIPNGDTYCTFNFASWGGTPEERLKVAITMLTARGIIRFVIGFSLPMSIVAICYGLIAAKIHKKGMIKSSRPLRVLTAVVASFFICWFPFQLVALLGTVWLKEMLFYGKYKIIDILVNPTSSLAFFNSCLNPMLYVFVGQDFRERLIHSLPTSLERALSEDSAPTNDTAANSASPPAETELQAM
Method in brief: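 HEK293 cells expressing hALXR and Gα16 were loaded with 1 μM Fluo-4 AM and 20 mM HEPES for 60 min at 37°C, then exposed to serially diluted compound. FLIPR fluorescence was read at ex 488/em 540 nm. Baseline-subtracted peak responses were normalized to 10 nM WKYMVm.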

[2] = biological target: T2, human FPRL2 (Homo sapiens, UniProt P25089); experiment: Intracellular calcium measurements (FLIPR), agonistic activity in HEK293-hFPRL2-Gα16 cells; assay type: cell-based; details: Fluo-4 calcium FLIPR, normalized to GLY14-Humanin 100 nM
T2 construct: expressed in transfected cells; host or cells: HEK293 (HEK293-hFPRL2-Gα16)
T2 sequence (P25089 1-353): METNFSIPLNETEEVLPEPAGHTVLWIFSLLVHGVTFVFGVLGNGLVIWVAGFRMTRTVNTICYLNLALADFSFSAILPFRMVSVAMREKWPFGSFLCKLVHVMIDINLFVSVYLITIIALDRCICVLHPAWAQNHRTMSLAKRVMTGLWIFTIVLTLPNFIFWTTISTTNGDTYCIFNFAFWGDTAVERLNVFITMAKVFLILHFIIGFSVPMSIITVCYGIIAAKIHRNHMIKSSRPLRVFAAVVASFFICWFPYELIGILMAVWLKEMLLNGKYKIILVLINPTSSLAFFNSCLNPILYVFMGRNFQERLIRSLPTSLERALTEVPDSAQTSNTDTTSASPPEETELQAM
Method in brief: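 Peak values after baseline subtraction are expressed relative to 100 nM Gly14-Humanin; compounds diluted in assay buffer from 10 mM DMSO stocks.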

EC50 [1] | EC50 [2] | SMILES
77 nM | 2430 nM | CCn1nc(C)cc1CCNC(=O)[C@H]1[C@H](C(=O)Nc2ccc(Br)cc2)[C@@H]2C=C[C@H]1C21CC1 (racemic) [Example 76, (5R*)—N^5-(4-Bromophenyl)-(6R*)—N^6-(2-(1-ethyl-3-methyl-1H-pyrazol-5-yl)-ethyl)-(4S*,7R*)-[4,7-ethenylene-spiro[2.4]heptane]-5,6-dicarboxamide]
80 nM | 5480 nM | CCN(CC)CCCNC(=O)[C@H]1[C@H](C(=O)Nc2ccc(Br)cc2)[C@@H]2C=C[C@H]1C21CC1 (racemic) [Example 78, (5R*)—N^5-(4-Bromophenyl)-(6R*)—N^6-(3-diethyl-amino-propyl)-(4S*,7R*)-[4,7-ethenylene-spiro[2.4]heptane]-5,6-dicarboxamide]
97 nM | 7870 nM | O=C(NCCN1CCOCC1)[C@H]1[C@H](C(=O)Nc2ccc(Br)cc2)[C@@H]2C=C[C@H]1C21CC1 (racemic) [Example 80, (5R*)—N^5-(4-Bromophenyl)-(6R*)—N^6-(2-morpholino-ethyl)-(4S*,7R*)-[4,7-ethenylene-spiro[2.4]heptane]-5,6-dicarboxamide]
123 nM | 678 nM | O=C(NC1CCN(Cc2ccccc2)CC1)[C@H]1[C@H](C(=O)Nc2ccc(Br)cc2)[C@@H]2C=C[C@H]1C21CC1 (racemic) [Example 83, (5R*)—N^5-(4-Bromophenyl)-(6R*)—N^6—(N-benzyl-piperidin-4-yl)-(4S*,7R*)-[4,7-ethenylene-spiro[2.4]heptane]-5,6-dicarboxamide]
133 nM | 5500 nM | CCCCCCN(C)C(=O)[C@H]1[C@H](C(=O)Nc2ccc(Br)cc2)[C@@H]2C=C[C@H]1C21CC1 (racemic) [Example 84, (5R*)—N^5-(4-Bromophenyl)-(6R*)—N^6-methyl-N^6-hexyl-(4S*,7R*)-[4,7-ethenylene-spiro[2.4]heptane]-5,6-dicarboxamide]
146 nM | 8300 nM | CC(C)(C)CCNC(=O)[C@H]1[C@H](C(=O)Nc2ccc(Br)cc2)[C@@H]2C=C[C@H]1C21CC1 (racemic) [Example 85, (5R*)—N^5-(4-Bromophenyl)-(6R*)—N^6-(3,3-dimethyl-butyl)-(4S*,7R*)-[4,7-ethenylene-spiro[2.4]heptane]-5,6-dicarboxamide]
147 nM | 6940 nM | CN1CCC(NC(=O)[C@H]2[C@H](C(=O)Nc3ccc(Br)cc3)[C@@H]3C=C[C@H]2C32CC2)CC1 (racemic) [Example 86, (5R*)—N^5-(4-Bromophenyl)-(6R*)—N^6—(N-methyl-piperidin-4-yl)-(4S*,7R*)-[4,7-ethenylene-spiro[2.4]heptane]-5,6-dicarboxamide]
156 nM | 2200 nM | O=C(NCCCN1CCOCC1)[C@H]1[C@H](C(=O)Nc2ccc(Br)cc2)[C@@H]2C=C[C@H]1C21CC1 (racemic) [Example 87, (5R*)—N^5-(4-Bromophenyl)-(6R*)—N^6-(3-morpholino-propyl)-(4S*,7R*)-[4,7-ethenylene-spiro[2.4]heptane]-5,6-dicarboxamide]
168 nM | 9420 nM | Cc1[nH]ncc1CCCNC(=O)[C@H]1[C@H](C(=O)Nc2ccc(Br)cc2)[C@@H]2C=C[C@H]1C21CC1 (racemic) [Example 88, (5R*)—N^5-(4-Bromophenyl)-(6R*)—N^6-(3-(5-methyl-1H-pyrazol-4-yl)-propyl)-(4S*,7R*)-[4,7-ethenylene-spiro[2.4]heptane]-5,6-dicarboxamide]
200 nM | 2980 nM | CCCN(CC1CC1)C(=O)[C@H]1[C@H](C(=O)Nc2ccc(Br)cc2)[C@@H]2C=C[C@H]1C21CC1 (racemic) [Example 91, (5R*)—N^5-(4-Bromophenyl)-(6R*)—N^6-propyl-N^6-(cyclopropylmethyl)-(4S*,7R*)-[4,7-ethenylene-spiro[2.4]heptane]-5,6-dicarboxamide]
216 nM | > 25000 nM | O=C(NC1CCCCC1)[C@H]1[C@H](C(=O)Nc2ccc(Br)cc2)[C@@H]2C=C[C@H]1C21CC1 (racemic) [Example 93, (5R*)—N^5-(4-Bromophenyl)-(6R*)—N^6-(cyclohexyl)-(4S*,7R*)-[4,7-ethenylene-spiro[2.4]heptane]-5,6-dicarboxamide]
812 nM | 457 nM | Cc1onc(-c2ccccc2)c1CNC(=O)[C@H]1[C@H](C(=O)Nc2ccc(Br)cc2)[C@@H]2C=C[C@H]1C21CC1 (racemic) [Example 101, (5R*)—N^5-(4-Bromophenyl)-(6R*)—N^6-[(5-methyl-3-phenyl-isoxazol-4-yl)-methyl]-(4S*,7R*)-[4,7-ethenylene-spiro[2.4]heptane]-5,6-dicarboxamide]
0.46 nM | > 25000 nM | NC(=O)CCNC(=O)[C@H]1[C@H](C(=O)Nc2ccc(Br)cc2)[C@@H]2CC[C@H]1C21CC1 (racemic) [Example 102, (5R*)—N^5-(4-Bromophenyl)-(6R*)—N^6-(2-carbamoyl-ethyl)-(4S*,7R*)-[4,7-ethylene-spiro[2.4]heptane]-5,6-dicarboxamide]
4.8 nM | 6920 nM | COCCCNC(=O)[C@H]1[C@H](C(=O)Nc2ccc(Br)cc2)[C@@H]2CC[C@H]1C21CC1 (racemic) [Example 103, (5R*)—N^5-(4-Bromophenyl)-(6R*)—N^6-(3-methoxy-propyl)-(4S*,7R*)-[4,7-ethylene-spiro[2.4]heptane]-5,6-dicarboxamide]
2.4 nM | 3730 nM | O=C(NCCN1CCNC1=O)[C@H]1[C@H](C(=O)Nc2ccc(Br)cc2)[C@@H]2CC[C@H]1C21CC1 (racemic) [Example 105, (5R*)—N^5-(4-Bromophenyl)-(6R*)—N^6-[(2-imidazolidin-2-on-1-yl)-ethyl]-(4S*,7R*)-[4,7-ethylene-spiro[2.4]heptane]-5,6-dicarboxamide]

SMILES | EC50 [1] | EC50 [2]
CC(C)(C)OC(=O)CCCNC(=O)[C@H]1[C@H](C(=O)Nc2ccc(Br)cc2)[C@@H]2C=C[C@H]1C21CC1 (racemic) [Example 89, (5R*)—N^5-(4-Bromophenyl)-(6R*)—N^6-(3-tert-butoxycarbonyl-propyl)-(4S*,7R*)-[4,7-ethenylene-spiro[2.4]heptane]-5,6-dicarboxamide] | 191 nM | 2470 nM
CC(C)(C)OC(=O)NCc1cccc(CNC(=O)[C@H]2[C@H](C(=O)Nc3ccc(Br)cc3)[C@@H]3C=C[C@H]2C32CC2)c1 (racemic) [Example 90, (5R*)—N^5-(4-Bromophenyl)-(6R*)—N^6-{[(3-N-tert-butoxycarbonyl-aminomethyl)-phenyl]-methyl}-(4S*,7R*)-[4,7-ethenylene-spiro[2.4]heptane]-5,6-dicarboxamide] | 194 nM | 2260 nM
CC(C)(C)OC(=O)N1CCC(CNC(=O)[C@H]2[C@H](C(=O)Nc3ccc(Br)cc3)[C@@H]3C=C[C@H]2C32CC2)CC1 (racemic) [Example 92, (5R*)—N^5-(4-Bromophenyl)-(6R*)—N^6—(N-tert-butoxycarbonyl-piperidin-4-yl-methyl)-(4S*,7R*)-[4,7-ethenylene-spiro[2.4]heptane]-5,6-dicarboxamide] | 204 nM | 2670 nM
CC(C)(C)OC(=O)N1CCC(NC(=O)[C@H]2[C@H](C(=O)Nc3ccc(Br)cc3)[C@@H]3C=C[C@H]2C32CC2)CC1 (racemic) [Example 94, (5R*)—N^5-(4-Bromophenyl)-(6R*)—N^6—(N-tert-butoxycarbonyl-piperidin-4-yl)-(4S*,7R*)-[4,7-ethenylene-spiro[2.4]heptane]-5,6-dicarboxamide] | 218 nM | 1040 nM
CC(C)(C)OC(=O)NCc1ccc(CNC(=O)[C@H]2[C@H](C(=O)Nc3ccc(Br)cc3)[C@@H]3C=C[C@H]2C32CC2)cc1 (racemic) [Example 97, (5R*)—N^5-(4-Bromophenyl)-(6R*)—N^6-[(4-N-tert-butoxycarbonyl-aminomethyl-phenyl)-methyl]-(4S*,7R*)-[4,7-ethenylene-spiro[2.4]heptane]-5,6-dicarboxamide] | 391 nM | 1430 nM
CC(C)(C)OC(=O)N1CC(NC(=O)[C@H]2[C@H](C(=O)Nc3ccc(Br)cc3)[C@@H]3C=C[C@H]2C32CC2)C1 (racemic) [Example 98, (5R*)—N^5-(4-Bromophenyl)-(6R*)—N^6—(N-tert-butoxycarbonyl-azetidin-3-yl)-(4S*,7R*)-[4,7-ethenylene-spiro[2.4]heptane]-5,6-dicarboxamide] | 477 nM | 582 nM
